Test results taken from BindingDB's records for doi:10.7270/Q27D2X8F (n/a, 1993).

What was measured:
[1] = biological target: Serotonin 2 (5-HT2) receptor (Homo sapiens, UniProt P28223+P28335+P41595); test: The compound was evaluated for its ability to displace [3H]ketanserin from 5-hydroxytryptamine 2 receptor in cellular brain membranes
[2] = biological target: 5-hydroxytryptamine receptor 1B (Homo sapiens, UniProt P28222); test: The compound was evaluated for its ability to displace [3H]5-HT from 5-hydroxytryptamine 1B receptor in cellular brain membranes
[3] = biological target: T1, 5-hydroxytryptamine receptor 1A (Homo sapiens, UniProt P08908); test: The compound was evaluated for its ability to displace [3H]-8-OH-DPAT from 5-hydroxytryptamine 1A receptor in cellular brain membranes
T1 sequence (P08908 whole entry): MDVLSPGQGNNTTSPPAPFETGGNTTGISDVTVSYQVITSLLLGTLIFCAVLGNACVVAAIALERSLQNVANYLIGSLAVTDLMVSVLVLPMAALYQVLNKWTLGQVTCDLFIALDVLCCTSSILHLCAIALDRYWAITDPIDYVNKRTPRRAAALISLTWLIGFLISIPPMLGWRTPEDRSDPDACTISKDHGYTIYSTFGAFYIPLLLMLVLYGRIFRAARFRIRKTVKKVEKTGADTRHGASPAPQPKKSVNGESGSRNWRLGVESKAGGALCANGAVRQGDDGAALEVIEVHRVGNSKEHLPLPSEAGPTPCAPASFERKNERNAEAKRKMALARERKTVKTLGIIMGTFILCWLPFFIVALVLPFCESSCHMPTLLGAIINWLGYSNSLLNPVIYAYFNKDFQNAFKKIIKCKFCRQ

Sequence of Serotonin 2 (5-HT2) receptor (P28223 whole entry): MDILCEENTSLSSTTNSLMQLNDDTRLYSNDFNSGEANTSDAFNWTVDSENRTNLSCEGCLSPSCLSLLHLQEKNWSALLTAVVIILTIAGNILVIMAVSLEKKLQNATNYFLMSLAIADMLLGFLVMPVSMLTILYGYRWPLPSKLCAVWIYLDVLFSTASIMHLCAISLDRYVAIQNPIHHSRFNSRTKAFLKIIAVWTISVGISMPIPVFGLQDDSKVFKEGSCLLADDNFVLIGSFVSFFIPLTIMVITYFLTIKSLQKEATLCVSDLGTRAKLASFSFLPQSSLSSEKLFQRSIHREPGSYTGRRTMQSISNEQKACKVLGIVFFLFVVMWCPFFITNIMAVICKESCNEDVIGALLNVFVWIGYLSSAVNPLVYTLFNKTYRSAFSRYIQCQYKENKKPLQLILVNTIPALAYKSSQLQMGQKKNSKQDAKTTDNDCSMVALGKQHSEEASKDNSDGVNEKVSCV
Sequence of Serotonin 2 (5-HT2) receptor (P41595 whole entry): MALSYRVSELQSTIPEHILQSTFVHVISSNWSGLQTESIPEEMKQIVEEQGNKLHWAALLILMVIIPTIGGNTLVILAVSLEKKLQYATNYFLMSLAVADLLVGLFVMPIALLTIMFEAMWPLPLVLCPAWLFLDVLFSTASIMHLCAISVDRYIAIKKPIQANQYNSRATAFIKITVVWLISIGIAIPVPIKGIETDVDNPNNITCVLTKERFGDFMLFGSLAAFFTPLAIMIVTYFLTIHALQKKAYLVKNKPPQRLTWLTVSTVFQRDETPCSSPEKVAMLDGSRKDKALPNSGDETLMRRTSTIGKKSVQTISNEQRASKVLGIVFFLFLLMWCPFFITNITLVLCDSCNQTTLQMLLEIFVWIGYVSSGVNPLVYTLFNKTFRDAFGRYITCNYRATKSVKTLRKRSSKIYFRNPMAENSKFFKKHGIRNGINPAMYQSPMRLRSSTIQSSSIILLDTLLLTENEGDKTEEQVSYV
Sequence of Serotonin 2 (5-HT2) receptor (P28335 whole entry): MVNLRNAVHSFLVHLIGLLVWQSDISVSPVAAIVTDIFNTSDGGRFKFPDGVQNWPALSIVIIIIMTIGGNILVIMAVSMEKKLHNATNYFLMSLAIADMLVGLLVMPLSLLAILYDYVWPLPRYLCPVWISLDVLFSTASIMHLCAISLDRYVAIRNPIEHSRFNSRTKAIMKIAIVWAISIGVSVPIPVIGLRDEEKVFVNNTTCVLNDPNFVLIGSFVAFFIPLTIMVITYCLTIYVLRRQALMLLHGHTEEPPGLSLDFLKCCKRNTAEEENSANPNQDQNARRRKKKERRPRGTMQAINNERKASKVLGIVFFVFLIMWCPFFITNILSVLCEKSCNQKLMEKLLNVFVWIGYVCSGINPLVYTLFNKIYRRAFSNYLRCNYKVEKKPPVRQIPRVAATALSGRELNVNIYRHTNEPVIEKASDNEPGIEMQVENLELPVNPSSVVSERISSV
Sequence of 5-hydroxytryptamine receptor 1B (P28222 whole entry): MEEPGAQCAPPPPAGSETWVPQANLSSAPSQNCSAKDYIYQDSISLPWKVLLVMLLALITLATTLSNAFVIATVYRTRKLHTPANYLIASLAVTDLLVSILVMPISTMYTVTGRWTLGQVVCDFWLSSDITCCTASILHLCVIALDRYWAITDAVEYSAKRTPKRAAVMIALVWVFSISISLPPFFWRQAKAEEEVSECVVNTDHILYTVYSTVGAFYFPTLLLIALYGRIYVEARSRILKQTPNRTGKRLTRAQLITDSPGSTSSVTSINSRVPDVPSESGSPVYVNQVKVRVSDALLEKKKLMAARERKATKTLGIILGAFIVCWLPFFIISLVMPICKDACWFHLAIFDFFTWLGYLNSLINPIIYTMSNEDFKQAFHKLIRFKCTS

Question: How did the IC50 [1] turn out when CCCN(CCCCNC(=O)c1cc(=O)oc2c3c4c(cc12)CCCN4CCC3)C1COc2cccc(OC)c2C1 (stereo not given) was run?
Answer: The IC50 was 0.015 µM.

Question: What about the IC50 [2] of the same compound?
Answer: The IC50 was 9 nM.

Question: And the IC50 [3]?
Answer: Its IC50 is 0.3 nM.

Question: Which IC50 [1] does the source give for CCCN(CCCCNc1ccc([N+](=O)[O-])c2nonc12)C1COc2cccc(OC)c2C1 (stereo not given) here?
Answer: The IC50 was 18 µM.

Question: And the IC50 [2]?
Answer: The IC50 was 340 nM.

Question: What about the IC50 [3] of the same compound?
Answer: The IC50 was 100 nM.

Question: How did the IC50 [1] turn out when CCCN(CCCCN1C(=O)c2ccccc2S1(=O)=O)C1COc2cccc(OC)c2C1 (stereo not given) [2-{4-[(5-Methoxy-chroman-3-yl)-propyl-amino]-butyl}-1,1-dioxo-1,2-dihydro-1lambda*6*-benzo[d]isothiazol-3-one; compound with oxalic acid] was run?
Answer: The IC50 was 10 µM.

Question: And the IC50 [2]?
Answer: Its IC50 is 1000 nM.

Question: And the IC50 [3]?
Answer: Its IC50 is 1 nM.

Question: What does the source list for CCCN(CCCCN1C(=O)c2ccccc2C1=O)C1COc2cccc(OC)c2C1 (stereo not given) [2-{4-[(5-Methoxy-chroman-3-yl)-propyl-amino]-butyl}-isoindole-1,3-dione; compound with oxalic acid]?
Answer: IC50 [1]: 30 µM; IC50 [2]: 400 nM; IC50 [3]: 50 nM

Question: Which IC50 [1] does the source give for CCCN(CCCCN1C(=O)CC2(CCCC2)CC1=O)C1COc2cccc(OC)c2C1 (stereo not given) [NSC_121851] here?
Answer: Its IC50 is 0.01 µM.

Question: And the IC50 [2]?
Answer: Its IC50 is 5000 nM.

Question: And the IC50 [3]?
Answer: The IC50 was 0.2 nM.
